SMILES strings stand for the structures.

This experiment concerns the target T1, human P2X3 (Homo sapiens, UniProt P56373).
T1 sequence (P56373 1-397): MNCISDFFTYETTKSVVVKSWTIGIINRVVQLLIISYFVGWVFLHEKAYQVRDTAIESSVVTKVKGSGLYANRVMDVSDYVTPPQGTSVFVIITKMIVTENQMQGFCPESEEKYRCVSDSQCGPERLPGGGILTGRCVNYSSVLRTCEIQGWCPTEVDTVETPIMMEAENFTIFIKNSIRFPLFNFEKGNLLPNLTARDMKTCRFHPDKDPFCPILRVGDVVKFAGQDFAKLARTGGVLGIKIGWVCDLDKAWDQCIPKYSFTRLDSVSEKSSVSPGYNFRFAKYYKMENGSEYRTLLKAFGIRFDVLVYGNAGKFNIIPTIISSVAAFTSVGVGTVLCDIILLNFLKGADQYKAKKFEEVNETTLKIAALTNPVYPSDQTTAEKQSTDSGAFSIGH
The experiment can be described thus: cell-based.
Procedure: An HEK293 cell line was used as cells. HEK293 cells were placed in a 37° C. incubator with 5% CO2 for culture. Passage was conducted when the cells grew to a density of 80% to 90%. A culture medium in an original 60 mm culture dish was discarded. After the cells were washed 3 times with a sterilized PBS solution, and the solution was blotted up. […] After the trypsin was blotted up, 3 mL of a cell culture medium was added to resuspend the cells. 0.5 mL of a resuspension solution was taken to be added into a new culture dish, and an total culture solution was supplemented to 5 mL. The culture dish was gently shaken to distribute the cells evenly, and then placed in a 37° C. incubator with 5% CO2 for culture.
First, treated slides were spread in a small 35 mm culture dish. 100 μL of resuspended cells were added, and then a total amount of a culture medium was supplemented to 2 mL. Target genes were transferred into the HEK293 cell line by adopting a calcium transfection method. Small dishes to be transfected were subjected to medium change 1 hour before transfection. 2 mL of a fresh cell culture solution was added. A 1.5 mL EP tube was taken, 200 μL of a 0.25 M CaCl2) solution was added, and 3 μg of plasmids to be transfected were added, and even mixing was conducted to form a DNA-CaCl2 solution. […] A pipette tip was used for mixing while adding. After adding all, gentle blowing and beating were conducted 8 to 10 times. After still standing for 5 minutes, they were added into small dishes. The small dishes were shaken slightly to mix the solution evenly, and the placed in a cell incubator. Culture mediums were replaced after 8 to 10 hours. Electrophysiological experiments were performed 24 to 48 hours after transfection.
Electrophysiological recording electrodes were obtained by two-step pulling by using an electrode puller (PP-10, Narishige). After an internal solution is injected into the electrodes, a water inlet resistance is 3 to 5 MΩ. During the experiment, a high potassium salt internal solution containing nystatin (K2SO4 of 75 mM, KCl of 120 mM, MgSO4 of 5 mM, HEPES of 10 mM, adjusting pH to 7.2 with Tris-base, and used after filtration) was used as an electrode internal solution. After the cells were sealed by the electrodes, there was no need to further break cell membranes in a sucked manner, but the cell membranes were bored through the perforation of the nystatin to the cell membranes, to form a hole channel. […] A clamping voltage was −60 mV, a sampling frequency was 10 kHz, and filtering was conducted at 2 kHz.
A working concentration of a P2X3 receptor agonist ATP was 1 μM, and an interval time between two times of ATP administrations was 10 minutes.
`Cc1ccc(C2=NN(C(=O)N[C@H](C)c3ccc(Cl)cc3)C[C@@H]2N2CCN(C)CC2=O)cc1` [Compound 2, (S)-4-(4-methyl-2-oxopiperazin-1-yl)-3-(4-methylphenyl)-N-((R)-1-(4-chlorophenyl)ethyl)-4,5-dihydro-1H-pyrazol-1-carboxamide] registered an IC50 of 7540 nM.
Under `Cc1ccc(C2=NN(C(=O)N[C@H](C)c3cnc(C(F)(F)F)nc3)C[C@@H]2N2CCOCC2=O)cc1` [Compound 3] stands 215 nM; under `Cc1ccc(C2=NN(C(=O)N[C@H](C)c3cnc(C(F)(F)F)nc3)C[C@H]2N2CCOCC2=O)cc1` [Compound 3a, (R)-4-(3-oxomorpholin-4-yl)-3-(4-methylphenyl)-N-((R)-1-(2-(trifluoromethyl)pyrimidin-5-yl)ethyl)-4,5-dihydro-1H-pyrazol-1-carboxamide], 318 nM; under `CC(=O)N(C)[C@H]1CN(C(=O)N[C@H](C)c2ccc(C(F)(F)F)cc2)N=C1c1ccc(C)cc1` [Compound 5], 409 nM.
As for `CC(=O)N(C)[C@@H]1CN(C(=O)N[C@H](C)c2ccc(C(F)(F)F)cc2)N=C1c1ccc(C)cc1` [Compound 5a, (R)-4-(N-methylacetamido)-3-(4-methylphenyl)-N-((R)-1-(4-(trifluoromethyl)phenyl)ethyl)-4,5-dihydro-1H-pyrazol-1-carboxamide], the figure is 353 nM; as for `COc1ccc([C@@H](C)NC(=O)N2C[C@H](N3CCOC3=O)C(c3ccc(C)cc3)=N2)cc1OC` [Compound 6], 1230 nM.
`Cc1ccc(C2=NN(C(=O)N[C@H](C)c3ccc4c(c3)OCO4)C[C@@H]2N2CCCC2=O)cc1` [Compound 7, (S)-4-(2-oxopyrrolidin-1-yl)-3-(4-methylphenyl)-N-((R)-1-(3,4-(methylenedioxy)phenyl)ethyl)-4,5-dihydro-1H-pyrazol-1-carboxamide] returned an IC50 of 985 nM.
Regarding `CC(=O)N1CCN([C@H]2CN(C(=O)N[C@H](C)c3ccc(C#N)cc3)N=C2c2ccc(C)cc2)C1=O` [Compound 8, (S)-4-(3-acetyl-2-oxoimidazolidin-1-yl)-3-(4-methylphenyl)-N-((R)-1-(4-cyanophenyl)ethyl)-4,5-dihydro-1H-pyrazol-1-carboxamide], the IC50 was found to be 793 nM.
As for `COc1ccc([C@@H](C)NC(=O)N2C[C@H](N3CCCC3=O)C(c3ccc(C)cc3)=N2)nc1` [Compound 9], the figure is 529 nM; as for `Cc1ccc(C2=NN(C(=O)N[C@H](C)c3ccc(C(F)(F)F)cn3)C[C@@H]2N2CCCC2=O)cc1` [Compound 10], 216 nM.
As to `Cc1ccc(C2=NN(C(=O)N[C@H](C)c3ccc(C(F)(F)F)cn3)C[C@H]2N2CCCC2=O)cc1` [Compound 10a], the IC50 was found to be 136 nM.
As for `CC(=O)N(C)[C@H]1CN(C(=O)N[C@H](C)c2ccc(Cl)nc2)N=C1c1ccc(C)cc1` [Compound 11], the figure is 357 nM; as for `CC(=O)N(C)[C@@H]1CN(C(=O)N[C@H](C)c2ccc(Cl)nc2)N=C1c1ccc(C)cc1` [Compound 11a], 281 nM; as for `Cc1ccc(C2=NN(C(=O)N[C@H](C)c3cnc(F)c(F)c3)C[C@@H]2N2CCOC2=O)cc1` [Compound 12], 436 nM.
For `Cc1ccc(C2=NN(C(=O)N[C@H](C)c3cnc(F)c(F)c3)C[C@H]2N2CCOC2=O)cc1` [Compound 12a], the IC50 was determined as 322 nM.
Under `Cc1ccc(C2=NN(C(=O)N[C@H](C)c3ccc(OC(F)(F)F)nc3)C[C@@H]2N2CCCC2=O)cc1` [Compound 13] stands 257 nM; under `Cc1ccc(C2=NN(C(=O)N[C@H](C)c3ccc(OC(F)(F)F)nc3)C[C@H]2N2CCCC2=O)cc1` [Compound 13a], 329 nM.
As for `COc1ccc([C@@H](C)NC(=O)N2C[C@H](N3CCOCC3)C(c3ccc(F)cc3)=N2)cn1` [Compound 14, (S)-4-(morpholin-4-yl)-3-(4-fluorophenyl)-N-((R)-1-(6-methoxypyridin-3-yl)ethyl)-4,5-dihydro-1H-pyrazol-1-carboxamide], the figure is 736 nM.
In the case of `Cc1ccc(C2=NN(C(=O)N[C@H](C)c3ccc(C(F)(F)F)nc3)C[C@@H]2N(C)C(=O)CN(C)C)cc1` [Compound 15, (S)-4-(2-(dimethylamino)-N-methylacetamido)-3-(4-methylphenyl)-N-((R)-1-(6-(trifluoromethyl)pyridin-3-yl)ethyl)-4,5-dihydro-1H-pyrazol-1-carboxamide], the IC50 amounted to 2300 nM.
As for `COC(=O)N(C)[C@H]1CN(C(=O)N[C@H](C)c2ccc(C(F)(F)F)nc2)N=C1c1ccc(OC)cc1` [Compound 16, (S)-4-(N-methyl-N-methoxycarbonylamino)-3-(4-methoxyphenyl)-N-((R)-1-(6-(trifluoromethyl)pyridin-3-yl)ethyl)-4,5-dihydro-1H-pyrazol-1-carboxamide], the figure is 132 nM.
As for `COC(=O)N(C)[C@@H]1CN(C(=O)N[C@H](C)c2ccc(C(F)(F)F)nc2)N=C1c1ccc(OC)cc1` [Compound 16a, (R)-4-(N-methyl-N-methoxycarbonylamino)-3-(4-methoxyphenyl)-N-((R)-1-(6-(trifluoromethyl)pyridin-3-yl)ethyl)-4,5-dihydro-1H-pyrazol-1-carboxamide], the figure is 88 nM; as for `CC(=O)N1CCN([C@H]2CN(C(=O)N[C@H](C)c3ccc(C(F)(F)F)nc3)N=C2c2ccc(C)cc2)C1=O` [Compound 18, (S)-4-(3-acetyl-2-oxoimidazolidin-1-yl)-3-(4-methylphenyl)-N-((R)-1-(6-(trifluoromethyl)pyridin-3-yl)ethyl)-4,5-dihydro-1H-pyrazol-1-carboxamide], 173 nM.
Under `CC(=O)N1CCN([C@@H]2CN(C(=O)N[C@H](C)c3ccc(C(F)(F)F)nc3)N=C2c2ccc(C)cc2)C1=O` [Compound 18a, (R)-4-(3-acetyl-2-oxoimidazolidin-1-yl)-3-(4-methylphenyl)-N-((R)-1-(6-(trifluoromethyl)pyridin-3-yl)ethyl)-4,5-dihydro-1H-pyrazol-1-carboxamide] stands 95 nM; under `CC(=O)N1CCN([C@H]2CN(C(=O)N[C@H](C)c3ccc(C(F)(F)F)nc3)N=C2c2ccc(C)cc2)CC1` [Compound 19], 3860 nM.
Compound `Cc1ccc(C2=NN(C(=O)N[C@H](C)c3ccc(C(F)(F)F)nc3)C[C@H]2N2CCCC2=O)cc1` [Compound 21a] displayed an IC50 of 85 nM.
As for `Cc1ccc(C2=NN(C(=O)N[C@H](C)c3ccc(C(F)(F)F)nc3)C[C@H]2N2CCOC2=O)nc1` [Compound 23a, (R)-4-(2-oxooxazolidin-3-yl)-3-(5-methylpyridin-2-yl)-N-((R)-1-(6-(trifluoromethyl)pyridin-3-yl)ethyl)-4,5-dihydro-1H-pyrazol-1-carboxamide], the figure is 46 nM; as for `C[C@@H](NC(=O)N1C[C@H](N2CCOCC2=O)C(c2ccc(F)cc2)=N1)c1ccc(C(F)(F)F)nc1` [Compound 24, (S)-4-(3-oxomorpholin-4-y])-3-(4-fluorophenyl)-N-((R)-1-(2-(6-(trifluoromethyl)pyridin-3-yl)ethyl)-4,5-dihydro-1H-pyrazol-1-carboxamide], 212 nM; as for `C[C@@H](NC(=O)N1C[C@@H](N2CCOCC2=O)C(c2ccc(F)cc2)=N1)c1ccc(C(F)(F)F)nc1` [Compound 24a], 145 nM.
The compound `CC(=O)N(C)[C@H]1CN(C(=O)N[C@H](C)c2ccc(C(F)(F)F)nc2)N=C1c1ccc(C)cc1` [Compound 25] gave an IC50 of 158 nM.
`CC(=O)N(C)[C@@H]1CN(C(=O)N[C@H](C)c2ccc(C(F)(F)F)nc2)N=C1c1ccc(C)cc1` [Compound 25a] gave an IC50 of 112 nM.
As for `Cc1ccc(C2=NN(C(=O)N[C@H](C)c3cnc(C(F)(F)F)cn3)C[C@@H]2N2CCOCC2=O)cc1` [Compound 26], the figure is 143 nM; as for `Cc1ccc(C2=NN(C(=O)N[C@H](C)c3cnc(C(F)(F)F)cn3)C[C@H]2N2CCOCC2=O)cc1` [Compound 26a], 332 nM; as for `Cc1ccc(C2=NN(C(=O)N[C@H](C)c3cnc(C)cn3)C[C@@H]2N2CCOC2=O)cc1` [Compound 27], 389 nM.
Under `Cc1ccc(C2=NN(C(=O)N[C@H](C)c3cnc(C)cn3)C[C@H]2N2CCOC2=O)cc1` [Compound 27a] stands 257 nM; under `Cc1cnc([C@@H](C)NC(=O)N2C[C@H](N3CCCC3=O)C(c3ccc(F)cc3)=N2)cn1` [Compound 28, (S)-4-(2-oxopyrrolidin-1-yl)-3-(4-fluorophenyl)-N-((R)-1-(5-methylpyrazin-2-yl)ethyl)-4,5-dihydro-1H-pyrazol-1-carboxamide], 218 nM.
Under `Cc1cnc([C@@H](C)NC(=O)N2C[C@@H](N3CCCC3=O)C(c3ccc(F)cc3)=N2)cn1` [Compound 28a, (R)-4-(2-oxopyrrolidin-1-yl)-3-(4-fluorophenyl)-N-((R)-1-(5-methylpyrazin-2-yl)ethyl)-4,5-dihydro-1H-pyrazol-1-carboxamide] stands 165 nM.
`COc1ccc([C@@H](C)NC(=O)N2C[C@H](N3CCOC3=O)C(c3ccc(Cl)cc3)=N2)nn1` [Compound 29, (S)-4-(2-oxooxazolidin-3-yl)-3-(4-chlorophenyl)-N-((R)-1-(6-(methoxy)pyridazin-3-yl)ethyl)-4,5-dihydro-1H-pyrazol-1-carboxamide] showed an IC50 of 152 nM.
`COc1ccc([C@@H](C)NC(=O)N2C[C@@H](N3CCOC3=O)C(c3ccc(Cl)cc3)=N2)nn1` [Compound 29a, (R)-4-(2-oxooxazolidin-3-yl)-3-(4-chlorophenyl)-N-((R)-1-(6-(methoxy)pyridazin-3-yl)ethyl)-4,5-dihydro-1H-pyrazol-1-carboxamide]: the IC50 turned out to be 105 nM.

(Values after patent publication US12668589B2, “N-formamidopyrazoline derivative as P2X3 receptor antagonist and use thereof” (HANGZHOU WESTAN PHARMACEUTICAL TECHNOLOGY CO., LTD, priority 2020, dated 2026).)
